Legend:
Assay type in all cases: in vivo
Amaranthus retroflexus = experiment: Weeding effect in post-emergence stage (greenhouse pot spray)
Summary of the method: (§1)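 Read-out: fresh-weight growth control rate scored 3 weeks after spraying, mean of three replicates. Plants treated at 2-3 leaf stage by spray tower, doses 500-15 g a.i./ha (500, 250, 125, 60, 15).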

Stellaria media = experiment: as above
Summary of the method: as §1

weeds = experiment: Actual control effects and combined effects of mixtures of active ingredients (i) and (ii), stem-leaf treatment, Gowing method; settings: 20 days
Setaria viridis = experiment: Weeding effect in post-emergence stage (greenhouse pot spray); settings: Table 3, dose 60 g a.i./ha
Summary of the method: as §1

Digitaria sanguinalis = experiment: as above
Summary of the method: as §1

Echinochloa crusgalli = experiment: as above
Summary of the method: as §1

Abutilon theophrasti = experiment: as above
Summary of the method: as §1

Scirpus juncoides = experiment: Transplanted rice safety evaluation and weed control effect evaluation in rice field; settings: Table 7, dose 125 g a.i./ha, 14 days after treatment
Summary of the method: (§2)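 Paddy-soil pots, seeds sown and flooded (0.5-1 cm, then 3-4 cm water); Sagittaria grown from tubers. WP or SC dilutions dripped on at 0.5-leaf stage (Sagittaria at primary leaf). Visual 0-5 scoring of weeds at 14 days, rice at 21 days.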

Monochoria vaginalis = experiment: as above; settings: Table 7, dose 125 g a.i./ha, 14 days after treatment
Summary of the method: as §2

Echinochloa crusgali = experiment: as above; settings: Table 7, dose 125 g a.i./ha, 14 days after treatment
Summary of the method: as §2

Which “Amaranthus retroflexus (activity level)” value (Amaranthus retroflexus; Table 2, dose 125 g a.i./ha) does the source give for `CCSc1c(C(F)(F)F)ccc(C(=O)Nc2nnc(C)o2)c1F` [Compound 1-4] here?
Its value is 5 (Level 5: growth control rate is above 85%).

What about the “Amaranthus retroflexus (activity level)” value (Amaranthus retroflexus; Table 2, dose 250 g a.i./ha) of the same compound?
The value was 5 (Level 5: growth control rate is above 85%).

And the “Stellaria media (activity level)” value (Stellaria media; Table 2, dose 125 g a.i./ha)?
Its value is 5 (Level 5: growth control rate is above 85%).

What about the “Stellaria media (activity level)” value (Stellaria media; Table 2, dose 250 g a.i./ha) of the same compound?
Its value is 5 (Level 5: growth control rate is above 85%).

And the “Control effect of (i) alone at corresponding dose” value (from here on “Control effect of (i) alone”) (weeds; Cyperus difformis, (i) 0.3 g a.i./mu)?
The value was 4.1%.

And the “Control effect of (i) alone” value (weeds; Cyperus difformis, (i) 1 g a.i./mu)?
The value was 6.3%.

What about the “Control effect of (i) alone” value (weeds; Cyperus difformis, (i) 1.5 g a.i./mu) of the same compound?
The value was 9.2%.

What about the “Control effect of (i) alone” value (weeds; Cyperus difformis, (i) 3 g a.i./mu) of the same compound?
Its value is 15.2%.

What about the “Control effect of (i) alone” value (weeds; Cyperus difformis, (i) 6 g a.i./mu) of the same compound?
The value was 25.6%.

And the “Control effect of (i) alone” value (weeds; Cyperus difformis, (i) 9 g a.i./mu)?
Its value is 32.1%.

What about the “Control effect of (i) alone” value (weeds; Echinochloa phyllopogon, (i) 0.6 g a.i./mu) of the same compound?
Its value is 20.5%.

And the “Control effect of (i) alone” value (weeds; Echinochloa phyllopogon, (i) 0.7 g a.i./mu)?
The value was 25.1%.

What about the “Control effect of (i) alone” value (weeds; Echinochloa phyllopogon, (i) 0.75 g a.i./mu) of the same compound?
Its value is 30.3%.

And the “Control effect of (i) alone” value (weeds; Echinochloa phyllopogon, (i) 1 g a.i./mu)?
Its value is 36.6%.

What about the “Control effect of (i) alone” value (weeds; Echinochloa phyllopogon, (i) 1.5 g a.i./mu) of the same compound?
The value was 41.5%.

What about the “Control effect of (i) alone” value (weeds; Echinochloa phyllopogon, (i) 1.6 g a.i./mu) of the same compound?
The value was 45.3%.

And the “Control effect of (i) alone” value (weeds; Echinochloa phyllopogon, (i) 3 g a.i./mu)?
Its value is 60.2%.

What about the “Control effect of (i) alone” value (weeds; Leptochloa chinensis, (i) 3 g a.i./mu) of the same compound?
Its value is 18.6%.

And the “Control effect of (i) alone” value (weeds; Leptochloa chinensis, (i) 15 g a.i./mu)?
Its value is 45.6%.

And the “Control effect of (i) alone” value (weeds; Monochoria vaginalis, (i) 0.8 g a.i./mu)?
Its value is 5.8%.

And the “Control effect of (i) alone” value (weeds; Monochoria vaginalis, (i) 1 g a.i./mu)?
Its value is 6.2%.

And the “Control effect of (i) alone” value (weeds; Monochoria vaginalis, (i) 1.8 g a.i./mu)?
The value was 8.6%.

And the “Control effect of (i) alone” value (weeds; Monochoria vaginalis, (i) 2.4 g a.i./mu)?
The value was 10.2%.

What about the “Control effect of (i) alone” value (weeds; Monochoria vaginalis, (i) 3 g a.i./mu) of the same compound?
The value was 12.7%.

And the “Control effect of (i) alone” value (weeds; Monochoria vaginalis, (i) 3.5 g a.i./mu)?
The value was 13.3%.

What about the “Control effect of (i) alone” value (weeds; Monochoria vaginalis, (i) 5 g a.i./mu) of the same compound?
Its value is 19.6%.

What about the “Control effect of (i) alone” value (weeds; Monochoria vaginalis, (i) 6 g a.i./mu) of the same compound?
The value was 28.6%.

What about the “Control effect of (i) alone” value (weeds; Monochoria vaginalis, (i) 10 g a.i./mu) of the same compound?
Its value is 31.7%.

And the “Control effect of (i) alone” value (weeds; Monochoria vaginalis, (i) 15 g a.i./mu)?
Its value is 40.5%.

And the “Control effect of (i) alone” value (weeds; Sagittaria trifolia L., (i) 0.75 g a.i./mu)?
The value was 16.3%.

And the “Control effect of (i) alone” value (weeds; Sagittaria trifolia L., (i) 3 g a.i./mu)?
The value was 60.3%.

And the “Setaria viridis (activity level)” value (Setaria viridis)?
Its value is 5 (Level 5: growth control rate is above 85%).

What about the “Digitaria sanguinalis (activity level)” value (Digitaria sanguinalis; Table 2, dose 125 g a.i./ha) of the same compound?
Its value is 5 (Level 5: growth control rate is above 85%).

And the “Digitaria sanguinalis (activity level)” value (Digitaria sanguinalis; Table 2, dose 250 g a.i./ha)?
Its value is 5 (Level 5: growth control rate is above 85%).

What about the “Digitaria sanguinahs (activity level)” value (Digitaria sanguinalis; Table 3, dose 60 g a.i./ha) of the same compound?
The value was 5 (Level 5: growth control rate is above 85%).

What about the “Echinochloa crusgah (activity level)” value (Echinochloa crusgalli; Table 2, dose 125 g a.i./ha) of the same compound?
The value was 5 (Level 5: growth control rate is above 85%).

And the “Echinochloa crusgah (activity level)” value (Echinochloa crusgalli; Table 2, dose 250 g a.i./ha)?
The value was 5 (Level 5: growth control rate is above 85%).

And the “Abutilion theophrasti (activity level)” value (Abutilon theophrasti; Table 2, dose 125 g a.i./ha)?
The value was 5 (Level 5: growth control rate is above 85%).

What about the “Abutilion theophrasti (activity level)” value (Abutilon theophrasti; Table 2, dose 250 g a.i./ha) of the same compound?
The value was 5 (Level 5: growth control rate is above 85%).

And the “Abutilon theophrasti (activity level)” value (Abutilon theophrasti; Table 3, dose 60 g a.i./ha)?
Its value is 5 (Level 5: growth control rate is above 85%).

What about the “Scirpus juncoides (activity level)” value (Scirpus juncoides) of the same compound?
Its value is 5 (Level 5: growth control rate is above 85%).

And the “Monochoria vaginalis (activity level)” value (Monochoria vaginalis)?
The value was 5 (Level 5: growth control rate is above 85%).

What about the “Echinochloa crusgali (activity level)” value (Echinochloa crusgali) of the same compound?
The value was 5 (Level 5: growth control rate is above 85%).

Reference: US20230041563A1, “N-(1,3,4-OXADIAZOL-2-YL)ARYLCARBOXAMIDES OR SALTS THEREOF, PREPARATION METHODS, HERBICIDAL COMPOSITIONS AND USES THEREOF” (priority 2018, published 2023)
